Source: patent publication US10745396B2, “Pesticidally active polycyclic derivatives with sulfur containing substituents” (Syngenta Participations AG, priority 2015, dated 2020)

How the values were obtained:
Format in all cases: in vivo
[1] = system: Diabrotica balteata (Corn Root Worm); assay: Diabrotica balteata, maize sprouts on agar, L2 larvae; details: 96 h, application rate of 200 ppm, 4 days after infestation, read-out: effect in at least one of the two categories (mortality or growth inhibition)
Experimental: Example B2: Diabrotica balteata (Corn Root Worm)
Maize sprouts placed onto an agar layer in 24-well microtiter plates were treated with aqueous test solutions prepared from 10′000 ppm DMSO stock solutions by spraying. After drying, the plates were infested with L2 larvae (6 to 10 per well). The samples were assessed for mortality and growth inhibition in comparison to untreated samples 4 days after infestation.

[2] = system: Bemisia tabaci (Cotton White Fly); assay: Bemisia tabaci feeding/contact activity, cotton leaf discs; details: foliar, 144 h, application rate of 200 ppm, 6 days after incubation, adult white flies
Experimental: Example B1: Bemisia tabaci (Cotton White Fly): Feeding/Contact Activity
Cotton leaf discs were placed on agar in 24-well microtiter plates and sprayed with aqueous test solutions prepared from 10′000 ppm DMSO stock solutions. After drying the leaf discs were infested with adult white flies. The samples were checked for mortality 6 days after incubation.

[3] = system: Spodoptera littoralis (Egyptian Cotton Leaf Worm); assay: Spodoptera littoralis, cotton leaf discs, L1 larvae; details: foliar, 72 h, application rate of 200 ppm, 3 days after infestation
Experimental: Example B8: Spodoptera littoralis (Egyptian Cotton Leaf Worm)
Cotton leaf discs were placed onto agar in 24-well microtiter plates and sprayed with aqueous test solutions prepared from 10′000 ppm DMSO stock solutions. After drying the leaf discs were infested with five L1 larvae. The samples were assessed for mortality, anti-feeding effect, and growth inhibition in comparison to untreated samples 3 days after infestation. Control of Spodoptera littoralis by a test sample is given when at least one of the categories mortality, anti-feedant effect, and growth inhibition is higher than the untreated sample.

[4] = system: Plutella xylostella (Diamond Back Moth); assay: Plutella xylostella, artificial diet, L2 larvae; details: 120 h, application rate of 200 ppm, 5 days after infestation, read-out: effect in at least one of the two categories (mortality or growth inhibition)
Experimental: Example B7: Plutella xylostella (Diamond Back Moth)
24-well microtiter plates with artificial diet were treated with aqueous test solutions prepared from 10′000 ppm DMSO stock solutions by pipetting. After drying, the plates were infested with L2 larvae (10 to 15 per well). The samples were assessed for mortality and growth inhibition in comparison to untreated samples 5 days after infestation.

[5] = system: Frankliniella occidentalis (Western Flower Thrips); assay: Frankliniella occidentalis feeding/contact activity, sunflower leaf discs; details: foliar, 168 h, application rate of 200 ppm, 7 days after infestation, population of mixed ages
Experimental: Example B4: Frankliniella occidentalis (Western Flower Thrips): Feeding/Contact Activity
Sunflower leaf discs were placed on agar in 24-well microtiter plates and sprayed with aqueous test solutions prepared from […] stock solutions. After drying the leaf discs were infested with a Frankliniella population of mixed ages. The samples were assessed for mortality 7 days after infestation.

[6] = system: Myzus persicae (Green Peach Aphid); assay: Myzus persicae feeding/contact activity, sunflower leaf discs; details: foliar, 144 h, application rate of 200 ppm, 6 days after infestation
Experimental: Example B5: Myzus persicae (Green Peach Aphid): Feeding/Contact Activity
Sunflower leaf discs were placed onto agar in a 24-well microtiter plate and sprayed with aqueous test solutions prepared from 10′000 ppm DMSO stock solutions. After drying, the leaf discs were infested with an aphid population of mixed ages. The samples were assessed for mortality 6 days after infestation.

[7] = system: Myzus persicae (Green Peach Aphid); assay: Myzus persicae systemic activity, pea seedling roots in test solution; details: 144 h, test rate of 24 ppm, 6 days after placing seedlings into test solutions
Experimental: Example B6: Myzus persicae (Green Peach Aphid): Systemic Activity
Roots of pea seedlings infested with an aphid population of mixed ages were placed directly into aqueous test solutions prepared from 10′000 DMSO stock solutions. The samples were assessed for mortality 6 days after placing seedlings into test solutions.

[8] = system: Euschistus heros (Neotropical Brown Stink Bug); assay: Euschistus heros, soybean leaves on agar, N2 nymphs; details: 120 h, application rate of 200 ppm, 5 days after infestation, read-out: effect in at least one of the two categories (mortality or growth inhibition)
Experimental: Example B3: Euschistus heros (Neotropical Brown Stink Bug)
Soybean leaves on agar in 24-well microtiter plates were sprayed with aqueous test solutions prepared from 10′000 ppm DMSO stock solutions. After drying the leaves were infested with N2 nymphs. The samples were assessed for mortality and growth inhibition in comparison to untreated samples 5 days after infestation.

[9] = system: Spodoptera littoralis (Egyptian Cotton Leaf Worm); assay: Spodoptera littoralis, uptake by lettuce roots from agar, eggs; details: 144 h, test rate of 12.5 ppm, 6 days after infestation, read-out: effect in at least one of the three categories (mortality, anti-feeding, or growth inhibition)
Excerpt: Example B9: Spodoptera littoralis (Egyptian Cotton Leaf Worm)
Test compounds were applied by pipette from 10′000 ppm DMSO stock solutions into 24-well plates and mixed with agar. Lettuce seeds were placed onto the agar and the multi well plate was closed by another plate which contained also agar. After 7 days the compound was absorbed by the roots and the lettuce grew into the lid plate. The lettuce leaves were then cut off into the lid plate. Spodoptera eggs were pipetted through a plastic stencil onto a humid gel blotting paper and the lid plate was closed with it. The samples were assessed for mortality, anti-feedant effect and growth inhibition in comparison to untreated samples 6 days after infestation.

[10] = system: Thrips tabaci (Onion Thrips); assay: Thrips tabaci feeding/contact activity, sunflower leaf discs; details: foliar, 144 h, application rate of 200 ppm, 6 days after infestation
Experimental: Example B11: Thrips tabaci (Onion Thrips) Feeding/Contact Activity
Sunflower leaf discs were placed on agar in 24-well microtiter plates and sprayed with aqueous test solutions prepared from 10′000 ppm DMSO stock solutions. After drying the leaf discs were infested with a thrips population of mixed ages. The samples were assessed for mortality 6 days after infestation.

CCn1c(C(F)(F)F)cc2nc(-c3nc(-c4cncn4C)ccc3S(=O)(=O)CC)n(C)c2c1=O [Compound P28]
≥ 80%: percent effect (mortality or growth inhibition) at 200 ppm [1] | mortality at 200 ppm [2] | percent control (mortality, anti-feedant effect or growth inhibition) at 200 ppm [3] | percent effect (mortality or growth inhibition) at 200 ppm [4]

CCn1c(C(F)(F)F)cc2nc(-c3nc(-c4ccncc4)ccc3S(=O)(=O)CC)n(C)c2c1=O [Compound P13]
≥ 80%: percent effect (mortality or growth inhibition) at 200 ppm [1] | mortality at 200 ppm [5] | percent control (mortality, anti-feedant effect or growth inhibition) at 200 ppm [3] | percent effect (mortality or growth inhibition) at 200 ppm [4]

CCn1c(C(F)(F)F)cc2nc(-c3nc(-c4cnco4)ccc3S(=O)(=O)CC)n(C)c2c1=O [Compound P38]
≥ 80%: percent effect (mortality or growth inhibition) at 200 ppm [1] | mortality at 200 ppm [6] | mortality at 24 ppm [7] | percent control (mortality, anti-feedant effect or growth inhibition) at 200 ppm [3] | percent effect (mortality or growth inhibition) at 200 ppm [4]

CCn1c(C(F)(F)F)cc2nc(-c3nc(-c4cccc(SC)c4)ccc3S(=O)(=O)CC)n(C)c2c1=O [Compound P29]
≥ 80%: percent effect (mortality or growth inhibition) at 200 ppm [1] | mortality at 200 ppm [2] | mortality at 200 ppm [6] | percent control (mortality, anti-feedant effect or growth inhibition) at 200 ppm [3] | percent effect (mortality or growth inhibition) at 200 ppm [8] | percent effect (mortality or growth inhibition) at 200 ppm [4]

CCn1c(C(F)(F)F)cc2nc(-c3nc(-c4cncnc4)ccc3S(=O)(=O)CC)n(C)c2c1=O [Compound P21]
≥ 80%: percent effect (mortality or growth inhibition) at 200 ppm [1] | mortality at 200 ppm [2] | mortality at 200 ppm [6] | percent effect (mortality, anti-feeding or growth inhibition) at 12.5 ppm [9] | percent control (mortality, anti-feedant effect or growth inhibition) at 200 ppm [3] | percent effect (mortality or growth inhibition) at 200 ppm [8] | percent effect (mortality or growth inhibition) at 200 ppm [4]

CCn1c(C(F)(F)F)cc2nc(-c3nc(C4CC4)ccc3S(=O)(=O)CC)n(C)c2c1=O [Compound P11]
≥ 80%: mortality at 200 ppm [2]

CCn1c(C(F)(F)F)cc2nc(-c3nc(-n4cncn4)ccc3S(=O)(=O)CC)n(C)c2c1=O [Compound P5]
≥ 80%: percent effect (mortality or growth inhibition) at 200 ppm [1] | mortality at 200 ppm [2] | mortality at 200 ppm [6] | mortality at 24 ppm [7] | mortality at 200 ppm [10] | percent effect (mortality, anti-feeding or growth inhibition) at 12.5 ppm [9] | percent control (mortality, anti-feedant effect or growth inhibition) at 200 ppm [3] | percent effect (mortality or growth inhibition) at 200 ppm [8] | percent effect (mortality or growth inhibition) at 200 ppm [4]

CCn1c(C(F)(F)F)cc2nc(-c3nc(-n4ccc(C(F)(F)F)n4)ccc3S(=O)(=O)CC)n(C)c2c1=O [Compound P3, 5-ethyl-2-[3-ethylsulfonyl-6-[3-(trifluoromethyl)pyrazol-1-yl]-2-pyridyl]-3-methyl-6-(trifluoromethyl)imidazo[4,5-c]pyridin-4-one]
≥ 80%: percent effect (mortality or growth inhibition) at 200 ppm [1] | mortality at 200 ppm [2] | percent control (mortality, anti-feedant effect or growth inhibition) at 200 ppm [3] | percent effect (mortality or growth inhibition) at 200 ppm [8] | percent effect (mortality or growth inhibition) at 200 ppm [4]

CCn1c(C(F)(F)F)cc2nc(-c3nc(-c4cnc(OC)nc4)ccc3S(=O)(=O)CC)n(C)c2c1=O [Compound P20]
≥ 80%: percent effect (mortality or growth inhibition) at 200 ppm [1] | mortality at 200 ppm [6] | mortality at 200 ppm [5] | percent effect (mortality, anti-feeding or growth inhibition) at 12.5 ppm [9] | percent control (mortality, anti-feedant effect or growth inhibition) at 200 ppm [3] | percent effect (mortality or growth inhibition) at 200 ppm [8] | percent effect (mortality or growth inhibition) at 200 ppm [4]

CCn1c(C(F)(F)F)cc2nc(-c3nc(-c4ccc(C(F)(F)F)nc4)ccc3S(=O)(=O)CC)n(C)c2c1=O [Compound P16]
≥ 80%: percent effect (mortality or growth inhibition) at 200 ppm [1] | mortality at 200 ppm [2] | mortality at 200 ppm [6] | mortality at 200 ppm [5] | percent control (mortality, anti-feedant effect or growth inhibition) at 200 ppm [3] | percent effect (mortality or growth inhibition) at 200 ppm [8] | percent effect (mortality or growth inhibition) at 200 ppm [4]

CCn1c(C(F)(F)F)cc2nc(-c3nc(-c4ccccc4)ccc3S(=O)(=O)CC)n(C)c2c1=O [Compound P18]
≥ 80%: percent effect (mortality or growth inhibition) at 200 ppm [1] | mortality at 200 ppm [6] | percent effect (mortality, anti-feeding or growth inhibition) at 12.5 ppm [9] | percent control (mortality, anti-feedant effect or growth inhibition) at 200 ppm [3] | percent effect (mortality or growth inhibition) at 200 ppm [8] | percent effect (mortality or growth inhibition) at 200 ppm [4]

CCn1c(C(F)(F)F)cc2nc(-c3nc(-c4cc(F)cc(F)c4)ccc3S(=O)(=O)CC)n(C)c2c1=O [Compound P12]
≥ 80%: percent effect (mortality or growth inhibition) at 200 ppm [1] | mortality at 200 ppm [6] | percent effect (mortality, anti-feeding or growth inhibition) at 12.5 ppm [9] | percent control (mortality, anti-feedant effect or growth inhibition) at 200 ppm [3] | percent effect (mortality or growth inhibition) at 200 ppm [8] | percent effect (mortality or growth inhibition) at 200 ppm [4]

CCn1c(C(F)(F)F)cc2nc(-c3nc(-c4cccc(F)c4)ccc3S(=O)(=O)CC)n(C)c2c1=O [Compound P14]
≥ 80%: percent effect (mortality or growth inhibition) at 200 ppm [1] | mortality at 200 ppm [2] | mortality at 200 ppm [6] | percent effect (mortality, anti-feeding or growth inhibition) at 12.5 ppm [9] | percent control (mortality, anti-feedant effect or growth inhibition) at 200 ppm [3] | percent effect (mortality or growth inhibition) at 200 ppm [8] | percent effect (mortality or growth inhibition) at 200 ppm [4]

CCn1c(C(F)(F)F)cc2nc(-c3nc(-c4cc(F)ccc4F)ccc3S(=O)(=O)CC)n(C)c2c1=O [Compound P37]
≥ 80%: percent effect (mortality or growth inhibition) at 200 ppm [1] | mortality at 200 ppm [2] | percent effect (mortality, anti-feeding or growth inhibition) at 12.5 ppm [9] | percent control (mortality, anti-feedant effect or growth inhibition) at 200 ppm [3] | percent effect (mortality or growth inhibition) at 200 ppm [8] | percent effect (mortality or growth inhibition) at 200 ppm [4]
